# Data from article PMC12311259, “Antifibrotic effects of specific targeting of the 5‐hydroxytryptamine 2B receptor (5‐HT2BR) in murine models and ex vivo models of scleroderma skin” (Arthritis & Rheumatology (Hoboken, N.j.), 2025).
# Tested on: Bleomycin-induced pulmonary fibrosis
# Test: Bleomycin-induced pulmonary fibrosis in mice
# Type: in vivo, mouse
# Conditions: 30 mg/kg orally qd, relative to AM1476
# Procedure: Pulmonary fibrosis was induced by a single intratracheal instillation of bleomycin (25 μg in 50 μL of 0.9% NaCl).[12] Treatment was initiated at two weeks after the first injection of bleomycin. AM1476 was administered orally at 1, 3, or 10 mg/kg once daily. Solvent (double‐distilled water) was used as a control, and nintedanib at 30 mg/kg orally every day (qd) was included as a comparator. The outcome was analyzed at two and four weeks after the first injection of bleomycin. Mice injected with 0.9% NaCl, the vehicle of bleomycin, served as nonfibrotic controls. Eight mice per group were analyzed.
# Skin samples were fixed in 4% formalin for six hours and embedded in paraffin. Five‐micrometer sections were cut and stained with hematoxylin and eosin (H&E). The dermal thickness was quantified on H&E‐stained sections using images captured with a light microscope (Nikon eclipse 80i) at 100‐fold magnification by manually measuring the distance between the epidermal‐dermal junction and the dermal‐subcutaneous fat junction at four sites per mouse.[15], [16] For lung samples, the whole left lung was fixed in 4% formalin for six hours and embedded in paraffin. Five‐micrometer sections were cut and stained with trichrome and sirius red. Histologic readouts were evaluation of the fibrotic area as the percentage of the total lung area in sirius red–stained sections (two sections per mouse) and quantification of pulmonary changes using the Ashcroft score (four sections per mouse).[17], [18]
# The amount of collagen protein in skin and lung samples was determined by hydroxyproline assay.[19], [20] After digestion in 6 M HCl for three hours at 120°C, the pH of the samples was adjusted to a pH range of 6–7 with 6 M NaOH. Afterward, 0.06 M chloramine T was added to each sample and incubated for 20 minutes at room temperature. Next, 3.15 M perchloric acid and 20% p‐dimethylaminobenzaldehyde were added, and samples were incubated for an additional 20 minutes at 60°C. The absorbance was determined at 557 nm with a Spectra MAX 190 microplate spectrophotometer. Absolute values were determined using a standard curved generated with type I collagen (Sigma‐Aldrich).
smiles,measurement,value
"COC(=O)c1ccc2c(c1)NC(=O)/C2=C(\Nc1ccc(N(C)C(=O)CN2CCN(C)CC2)cc1)c1ccccc1 [nintedanib, reference compound]",antifibrotic effects across the different readouts,comparable
